Experimental data: patent US9440982B2 (Eolas Therapeutics, Inc., priority 2012, dated 2016)

Legend:
OX1 = target: T1, OX1 (Homo sapiens, UniProt O43613); test: Orexin receptor cell-based functional assay, [Ca2+]i by FLIPR, CHO-OX1 cells; conditions: CHO-OX1 cells, [Ca2+]i by FLIPR, antagonist dose-range 0.1 nM-10 μM, EC90 of OXA; read-out: OX1
T1 construct: expressed in transfected cells; host or cells: CHO (CHO-OX1, kept under selection antibiotic)
T1 sequence (O43613 1-425): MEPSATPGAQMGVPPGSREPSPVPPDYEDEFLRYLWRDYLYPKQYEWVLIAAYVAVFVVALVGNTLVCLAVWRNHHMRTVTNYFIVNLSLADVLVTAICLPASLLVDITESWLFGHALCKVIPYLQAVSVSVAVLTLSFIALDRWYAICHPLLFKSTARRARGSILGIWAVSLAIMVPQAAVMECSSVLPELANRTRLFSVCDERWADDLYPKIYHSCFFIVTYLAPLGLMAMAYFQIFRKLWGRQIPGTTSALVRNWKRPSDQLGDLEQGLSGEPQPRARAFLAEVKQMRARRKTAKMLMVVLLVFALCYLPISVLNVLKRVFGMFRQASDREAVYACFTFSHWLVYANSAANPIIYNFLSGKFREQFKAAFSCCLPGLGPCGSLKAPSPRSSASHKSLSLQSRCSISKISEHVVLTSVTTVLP
Procedure, shortened: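 Antagonist mode FLIPR calcium read in CHO-OX1 and CHO-OX2 lines. Test compounds, dosed 0.1 nM-10 μM, preincubated 30 min after 37° C dye loading with 2.5 mM probenecid (calcium4 for 30 min or calcium6 for 2 h).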

CYP3A4 = target: T2, CYP3A4 (Homo sapiens, UniProt P08684); test: Cytochrome P450 inhibition assay (midazolam hydroxylation); format: in vitro ADME; conditions: human, human liver microsomes, probe midazolam (hydroxylation to 1′-hydroxymidazolam), 10 μM test compound, midazolam at approximately its Km
T2 construct: pre-incubated with human liver microsomes and NADPH; from tissue; host or cells: human liver microsomes
T2 sequence (P08684 whole entry): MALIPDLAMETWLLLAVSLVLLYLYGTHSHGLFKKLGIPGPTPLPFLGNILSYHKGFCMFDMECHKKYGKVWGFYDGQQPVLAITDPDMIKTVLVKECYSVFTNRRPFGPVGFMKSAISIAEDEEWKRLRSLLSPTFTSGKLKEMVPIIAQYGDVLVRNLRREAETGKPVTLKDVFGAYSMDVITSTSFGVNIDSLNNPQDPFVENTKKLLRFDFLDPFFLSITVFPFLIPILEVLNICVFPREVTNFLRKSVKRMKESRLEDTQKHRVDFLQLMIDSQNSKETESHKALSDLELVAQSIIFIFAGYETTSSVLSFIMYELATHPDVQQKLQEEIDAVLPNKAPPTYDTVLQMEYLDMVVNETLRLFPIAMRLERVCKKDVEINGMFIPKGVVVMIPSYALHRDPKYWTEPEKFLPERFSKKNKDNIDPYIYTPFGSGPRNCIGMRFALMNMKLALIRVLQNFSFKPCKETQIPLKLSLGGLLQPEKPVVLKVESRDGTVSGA
Procedure, shortened: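 Percent inhibition of midazolam 1′-hydroxylation by 10 μM compound was measured, midazolam dosed at about Km. Time-dependent inhibition was probed by a 30 min preincubation of compound with human liver microsomes and NADPH ahead of substrate, compared against samples without preincubation.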

| SMILES | IC50 (OX1) [nM] | inhibition at 10 µM (CYP3A4) [%] |
| --- | --- | --- |
| Cc1ccc(-n2ccc(C)n2)c(C(=O)N2CCC[C@@H](C)[C@H]2CNc2nc3cc(Cl)ccc3o2)c1 [Example A115, ((2S,3R)-2-(((5-Chlorobenzo[d]oxazol-2-yl)amino)methyl)-3-methylpiperidin-1-yl)(5-methyl-2-(3-methyl-1H-pyrazol-1-yl)phenyl)methanone] | 16 | 90 |
| Cc1ccc(-n2cccn2)c(C(=O)N2CCC[C@@H](C)[C@H]2CNc2ccc(C)nn2)c1 [Example A154, ((2S,3R)-3-Methyl-2-(((6-methylpyridazin-3-yl)amino)methyl)piperidin-1-yl)(5-methyl-2-(1H-pyrazol-1-yl)phenyl)methanone] | > 1000 | 43 |
| Cc1ccc(-n2nccn2)c(C(=O)N2CCC[C@@H](C)[C@H]2CNc2cccc(C)n2)c1 [Example A79, ((2S,3R)-3-Methyl-2-(((6-methylpyridin-2-yl)amino)methyl)piperidin-1-yl)(5-methyl-2-(2H-1,2,3-triazol-2-yl)phenyl)methanone] | 310 | 5 |
| Cc1ccc(-c2cnn(C)c2)c(C(=O)N2CCC[C@@H](C)[C@H]2CNc2nc3cc(Cl)ccc3o2)c1 [Example A12, ((2S,3R)-2-(((5-chlorobenzo[d]oxazol-2-yl)amino)methyl)-3-methylpiperidin-1-yl)(5-methyl-2-(1-methyl-1H-pyrazol-4-yl)phenyl)methanone] | 20 | 98 |
| Cc1ccc(-n2ncc(C)n2)c(C(=O)N2CCC[C@@H](C)[C@H]2CNc2nc3cc(Cl)ccc3o2)c1 [Example A116, ((2S,3R)-2-(((5-Chlorobenzo[d]oxazol-2-yl)amino)methyl)-3-methylpiperidin-1-yl)(5-methyl-2-(4-methyl-2H-1,2,3-triazol-2-yl)phenyl)methanone] | 4 | 75 |
| Cc1ccc(-c2ccn(C)n2)c(C(=O)N2CCC[C@@H](C)[C@H]2CNc2ccc(C(F)(F)F)cn2)c1 [Example A18, ((2S,3R)-3-Methyl-2-(((5-(trifluoromethyl)pyridin-2-yl)amino)methyl)piperidin-1-yl)(5-methyl-2-(1-methyl-1H-pyrazol-3-yl)phenyl)methanone] | 7 | 95 |
| Cc1ccc(-n2nccn2)c(C(=O)N2CCC[C@@H](C)[C@H]2CNc2ncc(Cl)cn2)n1 [Example A177, ((2S,3R)-2-(((5-Chloropyrimidin-2-yl)amino)methyl)-3-methylpiperidin-1-yl)(6-methyl-3-(2H-1,2,3-triazol-2-yl)pyridin-2-yl)methanone] | 5 | 39 |
| Cc1ccc(-n2nccn2)c(C(=O)N2CCC[C@@H](C)[C@H]2CNc2ccc(C(F)(F)F)nn2)c1 [Example A119, ((2S,3R)-3-Methyl-2-(((6-(trifluoromethyl)pyridazin-3-yl)amino)methyl)piperidin-1-yl)(5-methyl-2-(2H-1,2,3-triazol-2-yl)phenyl)methanone] | 19 | 59 |
| C[C@@H]1CCCN(C(=O)c2cccc(F)c2-c2ncccn2)[C@@H]1CNc1ncc(Cl)cn1 [Example A231, (3-Fluoro-2-(pyrimidin-2-yl)phenyl)((2S,3R)-3-methyl-2-(((5-chloropyrimidin-2-yl)amino)methyl)piperidin-1-yl)methanone] | 17 | 54 |
| C[C@@H]1CCCN(C(=O)c2ccccc2-n2nccn2)[C@@H]1CNc1nc2ccccc2o1 [Example A218, (2-(2H-1,2,3-Triazol-2-yl)phenyl)((2S,3R)-2-((benzo[d]oxazol-2-ylamino)methyl)-3-methylpiperidin-1-yl)methanone] | 130 | 75 |
| C[C@@H]1CCCN(C(=O)c2cc(Cl)ccc2-c2ncccn2)[C@@H]1CNc1ncc(C(F)(F)F)cn1 [Example A201, (5-Chloro-2-(pyrimidin-2-yl)phenyl)((2S,3R)-3-methyl-2-(((5-(trifluoromethyl)pyrimidin-2-yl)amino)methyl)piperidin-1-yl)methanone] | 4 | 38 |
| Cc1ccc(-c2cnn(C)c2)c(C(=O)N2CCC[C@@H](C)[C@H]2CNc2ncccc2C(F)(F)F)c1 [Example A93, ((2S,3R)-3-Methyl-2-(((3-(trifluoromethyl)pyridin-2-yl)amino)methyl)piperidin-1-yl)(5-methyl-2-(1-methyl-1H-pyrazol-4-yl)phenyl)methanone] | 460 | 96 |
| Cc1ccc(-c2ccccn2)c(C(=O)N2CCC[C@@H](C)[C@H]2CNc2ncc(F)cn2)c1 [Example A179, ((2S,3R)-2-(((5-Fluoropyrimidin-2-yl)amino)methyl)-3-methylpiperidin-1-yl)(5-methyl-2-(pyridin-2-yl)phenyl)methanone] | 490 | 67 |
| Cc1ccc(-n2cccn2)c(C(=O)N2CCC[C@@H](C)[C@H]2CNc2ncc(C(F)(F)F)cn2)n1 [Example A166, ((2S,3R)-3-Methyl-2-(((5-(trifluoromethyl)pyrimidin-2-yl)amino)methyl)piperidin-1-yl)(6-methyl-3-(1H-pyrazol-1-yl)pyridin-2-yl)methanone] | 8 | 44 |
| Cc1ccc(-c2ccccn2)c(C(=O)N2CCC[C@@H](C)[C@H]2CNc2ncc(C#N)cn2)c1 [Example A153, 2-((((2S,3R)-3-Methyl-1-(5-methyl-2-(pyridin-2-yl)benzoyl)piperidin-2-yl)methyl)amino)pyrimidine-5-carbonitrile] | 140 | 66 |
| Cc1ccc(-n2cc(C)cn2)c(C(=O)N2CCC[C@@H](C)[C@H]2CNc2ccc(C(F)(F)F)cn2)c1 [Example A107, ((2S,3R)-3-Methyl-2-(((5-(trifluoromethyl)pyridin-2-yl)amino)methyl)piperidin-1-yl)(5-methyl-2-(4-methyl-1H-pyrazol-1-yl)phenyl)methanone] | 4 | 91 |
| C[C@@H]1CCCN(C(=O)c2cc(F)c(F)cc2-c2ncccn2)[C@@H]1CNc1ncc(C(F)(F)F)cn1 [Example A243, (4,5-Difluoro-2-(pyrimidin-2-yl)phenyl)((2S,3R)-3-methyl-2-(((5-(trifluoromethyl)pyrimidin-2-yl)amino)methyl)piperidin-1-yl)methanone] | 75 | 68 |
| Cc1ccc(-n2nccn2)c(C(=O)N2CCC[C@@H](C)[C@H]2CNc2ncc3cc(C)ccc3n2)c1 [Example A220, ((2S,3R)-3-Methyl-2-(((6-methylquinazolin-2-yl)amino)methyl)piperidin-1-yl)(5-methyl-2-(2H-1,2,3-triazol-2-yl)phenyl)methanone] | 11 | 68 |
| Cc1cncc(-c2ccc(C)cc2C(=O)N2CCC[C@@H](C)[C@H]2CNc2ccc(C(F)(F)F)cn2)c1 [Example A5, ((2S,3R)-3-Methyl-2-(((5-(trifluoromethyl)pyridin-2-yl)amino)methyl)piperidin-1-yl)(5-methyl-2-(5-methylpyridin-3-yl)phenyl)methanone] | 6 | 98 |
| C[C@@H]1CCCN(C(=O)c2cc(Cl)ccc2-c2ncccn2)[C@@H]1CNc1ncc(Cl)cn1 [Example A202, (5-Chloro-2-(pyrimidin-2-yl)phenyl)((2S,3R)-2-(((5-chloropyrimidin-2-yl)amino)methyl)-3-methylpiperidin-1-yl)methanone] | 18 | 44 |
| Cc1ccc(-c2cccnc2)c(C(=O)N2CCC[C@@H](C)[C@H]2CNc2ncc(C(F)(F)F)cn2)n1 [Example A223, ((2S,3R)-3-Methyl-2-(((5-(trifluoromethyl)pyrimidin-2-yl)amino)methyl)piperidin-1-yl)(6-methyl-[3,3′-bipyridin]-2-yl)methanone] | 37 | 93 |
| Cc1ccc(-c2ccccn2)c(C(=O)N2CCC[C@@H](C)[C@H]2CNc2ccc(C(F)(F)F)cn2)c1 [Example A9, ((2S,3R)-3-Methyl-2-(((5-(trifluoromethyl)pyridin-2-yl)amino)methyl)piperidin-1-yl)(5-methyl-2-(pyridin-2-yl)phenyl)methanone] | 9 | 89 |
| Cc1ccc(-c2ncccn2)c(C(=O)N2CCC[C@@H](C)[C@H]2CNc2ncc(C(F)(F)F)cn2)c1 [Example A212, ((2S,3R)-3-Methyl-2-(((5-(trifluoromethyl)pyrimidin-2-yl)amino)methyl)piperidin-1-yl)(5-methyl-2-(pyrimidin-2-yl)phenyl)methanone] | 5 | 49 |
| Cc1ccc(-c2ccccn2)c(C(=O)N2CCC[C@@H](C)[C@H]2CNc2nc3cc(Cl)ccc3o2)n1 [Example A199, ((2S,3R)-2-(((5-Chlorobenzo[d]oxazol-2-yl)amino)methyl)-3-methylpiperidin-1-yl)(6′-methyl-[2,3′-bipyridin]-2′-yl)methanone] | 15 | 62 |
